Data as given in US7030141B2, “Inhibitors of factor Xa and other serine proteases involved in the coagulation cascade” (priority 2001, dated 2006).

What was measured:
[1] = target: T1, human factor Xa (Homo sapiens, UniProt P00742); test: Determination of Factor Xa IC50 (cleavage of chromogenic substrate S2765); type: biochemical; settings: for Fxa 3 PM % Inhibition at 1 uM / Fxa 3 PM % Inhibition at 4 uM: 3 pM factor Xa; for Fxa 3 PM % Inhibition at 1 uM / inhibition at 1 µM: compound at 1 uM; for Fxa 3 PM % Inhibition at 4 uM: compound at 4 uM; for inhibition at 1 µM: 1 h, read-out: % at 1 uM (printed in column FXA 30 pM IC50), 30 pM factor Xa
T1 construct: purchased Enzyme Research Laboratories
Description: A. Determination of Factor Xa IC50
These concentrations were achieved by diluting a 21.087 μM stock solution of factor Xa in the appropriate amount of a buffer comprising 10 […], 0.1% BSA, pH 7.4 (HBSA buffer). Accordingly, 5 μL of the compound to be tested in DMSO (2% final) is added to the factor Xa/buffer solution and incubated for 60 minutes at room temperature.
The IC50 is determined by monitoring the increase in […] at 390 nm exicitation, 460 nm emission, with a 455 nm cutoff, in a fluorometric plate reader.

[2] = system: thrombus formation; settings: rat arteriovenous shunt and venous stasis models; cited from earlier work
[3] = system: clot lysis / acute reocclusion; settings: dog; cited from earlier work
[4] = system: venous thrombosis; settings: rabbit model of venous thrombosis; cited from earlier work
[5] = system: arterial thrombosis; settings: canine coronary artery electrolytic lesion model; cited from earlier work
[6] = system: arterial and venous thrombosis; settings: various models of arterial and venous thrombosis; cited from earlier work

T1 sequence (P00742 235-488 limits assumed): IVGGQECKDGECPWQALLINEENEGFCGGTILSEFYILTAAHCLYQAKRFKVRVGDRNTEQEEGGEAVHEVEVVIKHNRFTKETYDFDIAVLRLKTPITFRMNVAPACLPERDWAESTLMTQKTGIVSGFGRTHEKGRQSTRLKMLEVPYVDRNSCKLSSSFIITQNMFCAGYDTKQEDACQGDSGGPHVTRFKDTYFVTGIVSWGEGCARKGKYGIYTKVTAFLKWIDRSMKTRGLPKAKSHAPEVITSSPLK
T1 sequence (P00742 41-179 partner limits assumed): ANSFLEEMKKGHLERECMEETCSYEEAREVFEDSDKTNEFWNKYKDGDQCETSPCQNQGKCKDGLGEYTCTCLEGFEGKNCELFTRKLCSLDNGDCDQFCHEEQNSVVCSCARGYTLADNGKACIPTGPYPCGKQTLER

## N#Cc1ccc(NC(=O)C2CCCN2C(=O)Nc2ccc(Cl)cc2)cc1 (stereo not drawn)
[1]
  Fxa 3 PM % Inhibition at 1 uM: 16.58%

## CC(=O)c1cccc(NC(=O)N2CCCC2C(=O)Nc2ccc(-c3ccccc3S(N)(=O)=O)cc2F)c1 (stereo not drawn)
[1]
  Fxa 3 PM % Inhibition at 4 uM: 21.04%

## CC(=N)N1CC[C@H](Oc2ccc([C@H](Cc3ccc4ccc(C(=N)N)cc4c3)C(=O)O)cc2)C1 [DX9065a]
[2]
  inhibition of thrombus formation: inhibition of thrombus formation was achieved at doses that had little effect on APTT

## COc1cccc(NC(=O)N2CCCC2C(=O)Nc2ccc(-c3ccccc3S(N)(=O)=O)cc2F)c1 (stereo not drawn)
[1]
  Fxa 3 PM % Inhibition at 4 uM: 36.21%

## NS(=O)(=O)c1ccccc1-c1ccc(NC(=O)C2CCCN2C(=O)Nc2ccc(C(F)(F)F)cc2)c(F)c1 (stereo not drawn)
[1]
  Fxa 3 PM % Inhibition at 4 uM: 25.1%

## Cc1ccc(Cl)cc1NC(=O)N1CCCC1C(=O)Nc1ccc(-c2ccccc2S(N)(=O)=O)cc1F (stereo not drawn)
[1]
  Fxa 3 PM % Inhibition at 4 uM: 19.84%

## NS(=O)(=O)c1ccccc1-c1ccc(NC(=O)C2CCCN2C(=O)Nc2ccccc2F)c(F)c1 (stereo not drawn)
[1]
  Fxa 3 PM % Inhibition at 4 uM: 37.21%

## NS(=O)(=O)c1ccccc1-c1ccc(NC(=O)[C@@H]2CCCN2C(=O)Nc2ccc(Cl)cc2)c(F)c1
[1]
  Fxa 3 PM % Inhibition at 1 uM: 46.5%

## Cc1cc(Cl)ccc1NC(=O)N1CCCC1C(=O)Nc1ccc(-c2ccccc2S(N)(=O)=O)cc1F (stereo not drawn)
[1]
  Fxa 3 PM % Inhibition at 4 uM: 38.88%

## N#Cc1ccc(NC(=O)N2CCCC2C(=O)Nc2ccc(-c3ccccc3S(N)(=O)=O)cc2F)cc1 (stereo not drawn)
[1]
  Fxa 3 PM % Inhibition at 4 uM: 51.86%

## O=C(Nc1ccc(-n2ccnn2)cc1)[C@H]1C[C@@H](O)CN1C(=O)Nc1ccc(Cl)cc1
[1]
  inhibition at 1 µM: 26%

## NS(=O)(=O)c1ccccc1-c1ccc(NC(=O)C2CCCN2C(=O)Nc2cccc(C(F)(F)F)c2)c(F)c1 (stereo not drawn)
[1]
  Fxa 3 PM % Inhibition at 4 uM: 21.61%

## NS(=O)(=O)c1ccccc1-c1ccc(NC(=O)C2CCCN2C(=O)Nc2ccc(F)c(Cl)c2)c(F)c1 (stereo not drawn)
[1]
  Fxa 3 PM % Inhibition at 4 uM: 41.07%

## CCc1ccc(NC(=O)N2CCCC2C(=O)Nc2ccc(-c3ccccc3S(N)(=O)=O)cc2F)cc1 (stereo not drawn)
[1]
  Fxa 3 PM % Inhibition at 4 uM: 38.14%

## NS(=O)(=O)c1ccccc1-c1ccc(NC(=O)C2CCCN2C(=O)Nc2ccc(Cl)c(Cl)c2)c(F)c1 (stereo not drawn)
[1]
  Fxa 3 PM % Inhibition at 4 uM: 41.71%

## CO[C@@H]1C[C@H](C(=O)Nc2ccc(N3CCC3=O)cc2F)N(C(=O)Nc2ccc(Cl)cn2)C1
[1]
  inhibition at 1 µM: 54%

## O=C(Nc1ccc(-c2nnn[nH]2)cc1)C1CCCN1C(=O)Nc1ccc(Cl)cc1 (stereo not drawn)
[1]
  Fxa 3 PM % Inhibition at 1 uM: 36.64%

## CN(C)c1ccc(NC(=O)N2CCCC2C(=O)Nc2ccc(-c3ccccc3S(N)(=O)=O)cc2F)cc1 (stereo not drawn)
[1]
  Fxa 3 PM % Inhibition at 4 uM: 19.93%

## O=C(Nc1ccc(-c2cncnc2)cc1)[C@H]1C[C@@H](O)CN1C(=O)Nc1ccc(Cl)cc1
[1]
  inhibition at 1 µM: 32%

## O=C(Nc1ccc(NC(=O)[C@H]2C[C@@H](O)CN2C(=O)Nc2ccc(Cl)cc2)cc1)C1CCCC1
[1]
  inhibition at 1 µM: 36%

## CC(C)c1ccc(NC(=O)N2CCCC2C(=O)Nc2ccc(-c3ccccc3S(N)(=O)=O)cc2F)cc1 (stereo not drawn)
[1]
  Fxa 3 PM % Inhibition at 4 uM: 19.22%

## NS(=O)(=O)c1ccccc1-c1ccc(NC(=O)C2CCCN2C(=O)Nc2cccc(Cl)c2)c(F)c1 (stereo not drawn)
[1]
  Fxa 3 PM % Inhibition at 4 uM: 55.97%

## rTAP: "recombinant tick anticoagulant peptide (rTAP)", one of the "protein or polypeptide factor Xa inhibitors" (YNRLCIKPRDWIDECDSNEGGERAYFRNGKGGCDSFWICPEDHTGADYYSSYRDCFNACI; UniProt P17726 1-60, looked up)
[3]
  acute reocclusion: prevent acute reocclusion
  recombinant tissue plasminogen activator mediated clot lysis: accelerate the recombinant tissue plasminogen activator mediated clot lysis
[4]
  fibrin deposition: reduce fibrin deposition
[5]
  thrombus mass and time to occlusion: reduce thrombus mass and time to occlusion

B1: Antistasin: "a potent inhibitor of blood coagulation factor Xa from the Mexican leech, Haementeria officinalis" (protein, UniProt P15358 18-136, looked up)
Antistasin: QGPFGPGCEEAGCPEGSACNIITDRCTCSGVRCRMHCPHGFQRSRYGCEFCKCRLEPMKATCDISECPEGMMCSRLTNKCDCKIDINCRKTCPNGLKRDKLGCEYCECRPKRKLIPRLS
[6]
  antithrombotic activity: displays antithrombotic activity
